Experiments:
[1] = relative permittivity at various frequencies (dimensionless); settings: 100 kPa, Liquid, Frequency=1 MHz, Parallel plate capacitor
[2] = relative permittivity at various frequencies (dimensionless); xn = mol fraction of the nth substance listed; settings: 100 kPa, Liquid, Frequency=1 MHz, Parallel plate capacitor

CCCCO [butan-1-ol]
[1]
Settings | relative permittivity
293.15 K | 18.21
298.15 K | 17.58
303.15 K | 16.95

CCCCO [butan-1-ol] + NC1CCCCC1
[2], x1 = 1
Settings | relative permittivity
293.15 K | 18.21
298.15 K | 17.58
303.15 K | 16.95

NC1CCCCC1 [cyclohexylamine]
[1]
Settings | relative permittivity
293.15 K | 4.62
298.15 K | 4.53
303.15 K | 4.45

NC1CCCCC1 [cyclohexylamine] + CCCCCCCCCCO
relative permittivity, [2]
Settings | 293.15 K | 298.15 K | 303.15 K
x2 = 0 | 4.62 | 4.53 | 4.45
x2 = 0.0561 | 4.87 | 4.78 | 4.69
x2 = 0.1027 | 5.05 | 4.95 | 4.85
x2 = 0.2012 | 5.4 | 5.29 | 5.19
x2 = 0.2947 | 5.73 | 5.6 | 5.49
x2 = 0.4077 | 6.09 | 5.95 | 5.82
x2 = 0.5107 | 6.42 | 6.26 | 6.11
x2 = 0.5522 | 6.56 | 6.38 | 6.22
x2 = 0.604 | 6.72 | 6.53 | 6.36
x2 = 0.6528 | 6.88 | 6.68 | 6.5
x2 = 0.697 | 7.02 | 6.81 | 6.61
x2 = 0.7474 | 7.2 | 6.97 | 6.76
x2 = 0.7859 | 7.34 | 7.09 | 6.87
x2 = 0.8348 | 7.54 | 7.27 | 7.02
x2 = 0.8915 | 7.81 | 7.51 | 7.22
x2 = 0.942 | 8.08 | 7.73 | 7.41

NC1CCCCC1 [cyclohexylamine] + CCCCCCCO
relative permittivity, [2]
Settings | 293.15 K | 298.15 K | 303.15 K
x2 = 0 | 4.62 | 4.53 | 4.45
x2 = 0.0522 | 4.93 | 4.83 | 4.74
x2 = 0.1037 | 5.22 | 5.11 | 5.01
x2 = 0.2039 | 5.8 | 5.7 | 5.61
x2 = 0.2903 | 6.29 | 6.15 | 6.01
x2 = 0.3955 | 6.93 | 6.76 | 6.6
x2 = 0.4467 | 7.27 | 7.08 | 6.91
x2 = 0.5072 | 7.67 | 7.45 | 7.26
x2 = 0.5554 | 8.01 | 7.78 | 7.56
x2 = 0.5918 | 8.26 | 8.01 | 7.78
x2 = 0.6575 | 8.72 | 8.45 | 8.19
x2 = 0.6959 | 9.01 | 8.71 | 8.44
x2 = 0.7433 | 9.39 | 9.07 | 8.77
x2 = 0.7933 | 9.81 | 9.46 | 9.13
x2 = 0.8177 | 10.03 | 9.67 | 9.34
x2 = 0.8881 | 10.7 | 10.29 | 9.9
x2 = 0.9463 | 11.35 | 10.89 | 10.45

NC1CCCCC1 [cyclohexylamine] + CCCCO
relative permittivity, [2]
Settings | 293.15 K | 298.15 K | 303.15 K
x2 = 0 | 4.62 | 4.53 | 4.45
x2 = 0.0493 | 4.99 | 4.9 | 4.8
x2 = 0.1081 | 5.46 | 5.35 | 5.23
x2 = 0.2107 | 6.37 | 6.22 | 6.07
x2 = 0.3104 | 7.39 | 7.2 | 7.01
x2 = 0.403 | 8.47 | 8.22 | 7.99
x2 = 0.4521 | 9.08 | 8.82 | 8.56
x2 = 0.4995 | 9.73 | 9.44 | 9.15
x2 = 0.5556 | 10.55 | 10.21 | 9.9
x2 = 0.5974 | 11.18 | 10.82 | 10.49
x2 = 0.6987 | 12.81 | 12.4 | 11.98
x2 = 0.7968 | 14.53 | 14.04 | 13.57
x2 = 0.8955 | 16.31 | 15.76 | 15.24
x2 = 0.9472 | 17.26 | 16.67 | 16.11
x2 = 0.9773 | 17.82 | 17.2 | 16.63

NC1CCCCC1 [cyclohexylamine] + CCCO
relative permittivity, [2]
Settings | 293.15 K | 298.15 K | 303.15 K
x2 = 0 | 4.62 | 4.53 | 4.45
x2 = 0.034 | 4.88 | 4.78 | 4.68
x2 = 0.1154 | 5.64 | 5.08 | 5.37
x2 = 0.213 | 6.58 | 6.42 | 6.26
x2 = 0.3031 | 7.66 | 7.46 | 7.26
x2 = 0.3996 | 9.02 | 8.76 | 8.5
x2 = 0.4469 | 9.77 | 9.48 | 9.19
x2 = 0.4962 | 10.61 | 10.29 | 9.97
x2 = 0.5499 | 11.61 | 11.25 | 10.89
x2 = 0.6056 | 12.69 | 12.29 | 11.9
x2 = 0.6998 | 14.69 | 14.24 | 13.79
x2 = 0.7953 | 16.94 | 16.43 | 15.92
x2 = 0.8464 | 18.08 | 17.54 | 17.01
x2 = 0.8913 | 19.21 | 18.71 | 18.14
x2 = 0.9509 | 20.44 | 19.85 | 19.21
x2 = 0.9798 | 21.09 | 20.41 | 19.77

CCCCCCCCCCO [decan-1-ol]
[1]
Settings | relative permittivity
293.15 K | 8.41
298.15 K | 8.01
303.15 K | 7.64

CCCCCCCCCCO [decan-1-ol] + NC1CCCCC1
[2], x1 = 1
Settings | relative permittivity
293.15 K | 8.41
298.15 K | 8.01
303.15 K | 7.64

CCCCCCCO [heptan-1-ol]
[1]
Settings | relative permittivity
293.15 K | 11.97
298.15 K | 11.47
303.15 K | 10.98

CCCCCCCO [heptan-1-ol] + NC1CCCCC1
[2], x1 = 1
Settings | relative permittivity
293.15 K | 11.97
298.15 K | 11.47
303.15 K | 10.98

CCCO [propan-1-ol]
[1]
Settings | relative permittivity
293.15 K | 21.23
298.15 K | 20.54
303.15 K | 19.84

CCCO [propan-1-ol] + NC1CCCCC1
[2], x1 = 1
Settings | relative permittivity
293.15 K | 21.23
298.15 K | 20.54
303.15 K | 19.84
